US8735414B2 (priority 2009, dated 2014)

tested on: bicistronic HCV replicon (replicon RNA, GenBank Accession No. AJ242654); assay: HCV Replicon Assay; assay type: cell-based; details: Hepatitis C virus, 72 h, read-out: Replicon IC50

Compared with Cc1cc2c(cc1F)cc(-c1ccc(S(=O)(=O)N[C@@H](C)C(F)(F)F)cn1)n2-c1cncs1 [compound 959, 6-[5-fluoro-6-methyl-1-(1,3-thiazol-5-yl)-1H-indol-2-yl]-N-[(2S)-1,1,1-trifluoropropan-2-yl]pyridine-3-sulfonamide], Cc1cc2c(cc1F)cc(-c1ccc(S(=O)(=O)N[C@@H](C)C(F)(F)F)cn1)n2-c1nncs1 [compound 958, 6-[5-fluoro-6-methyl-1-(1,3,4-thiadiazol-2-yl)-1H-indol-2-yl]-N-[(2S)-1,1,1-trifluoropropan-2-yl]pyridine-3-sulfonamide] is higher in IC50: under 0.5 µM for the first, 0.5 to 2 µM for the second.

C[C@H](NS(=O)(=O)c1ccc(-c2c(C#N)c3ccc(Cl)cc3n2C2CCCC2)nc1)C1CC1 [compound 155, 6-(6-chloro-3-cyano-1-cyclopentyl-1H-indol-2-yl)-N-[(1S)-1-cyclopropylethyl]pyridine-3-sulfonamide] and N#Cc1c(-c2ccc(S(=O)(=O)NC(CF)CF)cn2)n(C2CCCCC2)c2ccc(Cl)cc12 [compound 79, 6-(5-chloro-3-cyano-1-cyclohexyl-1H-indol-2-yl)-N-(1,3-difluoropropan-2-yl)pyridine-3-sulfonamide] cannot be ordered by IC50: under 0.5 µM for the first, under 0.5 µM for the second.

First: CC(C)NS(=O)(=O)c1cnc(-c2c(C#N)c3ccc(Cl)cc3n2C2CCCC2)nc1 [compound 189, 2-(6-chloro-3-cyano-1-cyclopentyl-1H-indol-2-yl)-N-(propan-2-yl)pyrimidine-5-sulfonamide]
Second: CC(C)n1c(-c2ncc(S(=O)(=O)NC(CF)CF)cn2)c(C#N)c2ccc(Cl)cc21 [compound 257, 2-[6-chloro-3-cyano-1-(propan-2-yl)-1H-indol-2-yl]-N-(1,3-difluoropropan-2-yl)pyrimidine-5-sulfonamide]
The IC50 of the first is lower: under 0.5 µM for the first, 0.5 to 2 µM for the second.

[2H][C@@](C)(NS(=O)(=O)c1ccc(-c2c(C#N)c3cc(F)c(C)cc3n2C2CCC2)nc1)C(F)(F)F [compound 1113, 6-(3-cyano-1-cyclobutyl-5-fluoro-6-methyl-1H-indol-2-yl)-N-[(2S)-1,1,1-trifluoro(2-deuterium)propan-2-yl]pyridine-3-sulfonamide] and CCc1cc2c(cc1F)c(C#N)c(-c1ccc(S(=O)(=O)N[C@@H](C)C(F)(F)F)cn1)n2C1CC1 [compound 910, 6-(3-cyano-1-cyclopropyl-6-ethyl-5-fluoro-1H-indol-2-yl)-N-[(2S)-1,1,1-trifluoropropan-2-yl]pyridine-3-sulfonamide] cannot be ordered by IC50: under 0.5 µM for the first, under 0.5 µM for the second.

COc1ccnc(-n2c(-c3ccc(S(=O)(=O)N[C@@H](C)C(F)(F)F)cn3)c(C#N)c3cc(F)c(C)cc32)c1 [compound 816, 6-[3-cyano-5-fluoro-1-(4-methoxypyridin-2-yl)-6-methyl-1H-indol-2-yl]-N-[(2S)-1,1,1-trifluoropropan-2-yl]pyridine-3-sulfonamide] and Cc1cc2c(cc1F)c(C#N)c(-c1ccc(S(=O)(=O)N[C@@H](C)C(F)(F)F)cn1)n2-c1ccc(F)cn1 [compound 742, 6-[3-cyano-5-fluoro-1-(5-fluoropyridin-2-yl)-6-methyl-1H-indol-2-yl]-N-[(2S)-1,1,1-trifluoropropan-2-yl]pyridine-3-sulfonamide] cannot be ordered by IC50: under 0.5 µM for the first, under 0.5 µM for the second.

First: CCc1cc2c(cc1F)c(C(N)=O)c(-c1ccc(S(=O)(=O)N[C@@H](C)C(F)(F)F)cn1)n2-c1ncccc1Cl [compound 1042, 1-(3-chloropyridin-2-yl)-6-ethyl-5-fluoro-2-(5-{[(2S)-1,1,1-trifluoropropan-2-yl]sulfamoyl}pyridin-2-yl)-1H-indole-3-carboxamide]
Second: CCc1cc2c(cc1F)c(C(N)=O)c(-c1ccc(S(=O)(=O)N[C@@H](C)C(F)(F)F)cn1)n2-c1ccncn1 [compound 1041, 6-ethyl-5-fluoro-1-(pyrimidin-4-yl)-2-(5-{[(2S)-1,1,1-trifluoropropan-2-yl]sulfamoyl}pyridin-2-yl)-1H-indole-3-carboxamide]
The IC50 of the first is higher: 0.5 to 2 µM for the first, under 0.5 µM for the second. The second is the more potent here.

First: Cc1cc(NS(=O)(=O)C(C)(C)C)ncc1-c1c(C(=O)O)c2cc(F)c(OC(F)F)cc2n1[C@H](C)C1CC1 [compound 1086, 2-{6-[(tert-butylsulfonyl)amino]-4-methylpyridin-3-yl}-1-[(1R)-1-cyclopropylethyl]-6-(difluoromethoxy)-5-fluoro-1H-indole-3-carboxylic acid]
Second: CSc1cc2c(C#N)c(-c3ccc(S(=O)(=O)N[C@@H](C)C(F)(F)F)cn3)n(C3CCC3)c2cc1OC(F)F [compound 685, 6-[3-cyano-1-cyclobutyl-6-(difluoromethoxy)-5-(methylsulfanyl)-1H-indol-2-yl]-N-[(2S)-1,1,1-trifluoropropan-2-yl]pyridine-3-sulfonamide]
The IC50 of the first is lower: under 0.5 µM for the first, 0.5 to 2 µM for the second.

First: CCc1cc2c(cc1F)c(C#N)c(-c1ccc(S(=O)(=O)N[C@@H](C)C(F)(F)F)cn1)n2C1=NC=CCN1 [compound 941, 6-[3-cyano-1-(1,6-dihydropyrimidin-2-yl)-6-ethyl-5-fluoro-1H-indol-2-yl]-N-[(2S)-1,1,1-trifluoropropan-2-yl]pyridine-3-sulfonamide]
Second: CCc1cc2c(cc1F)c(C#N)c(-c1ccc(S(=O)(=O)N[C@@H](C)C(F)(F)F)cn1)n2-c1ccccc1F [compound 1075, 6-[3-cyano-6-ethyl-5-fluoro-1-(2-fluorophenyl)-1H-indol-2-yl]-N-[(2S)-1,1,1-trifluoropropan-2-yl]pyridine-3-sulfonamide]
The IC50 of the first is higher: 0.5 to 2 µM for the first, under 0.5 µM for the second. The second is the more potent here.

N#Cc1c(-c2ccc(S(=O)(=O)NC(CF)CF)cn2)n(-c2ncccn2)c2ccc(F)cc12 [compound 608, 6-[3-cyano-5-fluoro-1-(pyrimidin-2-yl)-1H-indol-2-yl]-N-(1,3-difluoropropan-2-yl)pyridine-3-sulfonamide] and Cc1cc2c(cc1F)c(C#N)c(-c1ccc(S(=O)(=O)N[C@@H](C)C(F)(F)F)cn1)n2-c1ncco1 [compound 1073, 6-[3-cyano-5-fluoro-6-methyl-1-(1,3-oxazol-2-yl)-1H-indol-2-yl]-N-[(2S)-1,1,1-trifluoropropan-2-yl]pyridine-3-sulfonamide] cannot be ordered by IC50: under 0.5 µM for the first, under 0.5 µM for the second.

Cc1ccc2c(C#N)c(-c3ccc(S(=O)(=O)N[C@@H](C)C4CC4)cn3)n(CC3CC3)c2c1 [compound 237, 6-[3-cyano-1-(cyclopropylmethyl)-6-methyl-1H-indol-2-yl]-N-[(1S)-1-cyclopropylethyl]pyridine-3-sulfonamide] and Cc1ccc2c(c1)c(C#N)c(-c1ccc(S(=O)(=O)N[C@H](C)C(F)(F)F)cn1)n2C1CCCC1 [compound 486, 6-(3-cyano-1-cyclopentyl-5-methyl-1H-indol-2-yl)-N-[(2R)-1,1,1-trifluoropropan-2-yl]pyridine-3-sulfonamide] cannot be ordered by IC50: under 0.5 µM for the first, under 0.5 µM for the second.

First: CCc1cc2c(cc1F)c(C(N)=O)c(-c1ccc(S(=O)(=O)N[C@@H](C)C(F)(F)F)cn1)n2-c1ccc(C)cn1 [compound 1039, 6-ethyl-5-fluoro-1-(5-methylpyridin-2-yl)-2-(5-{[(2S)-1,1,1-trifluoropropan-2-yl]sulfamoyl}pyridin-2-yl)-1H-indole-3-carboxamide]
Second: C[C@H](NS(=O)(=O)c1ccc(-c2c(C(N)=O)c3cc(F)c(C4CC4)cc3n2C2CCCC2)nc1)C(F)(F)F [compound 838, 1-cyclopentyl-6-cyclopropyl-5-fluoro-2-(5-{[(2S)-1,1,1-trifluoropropan-2-yl]sulfamoyl}pyridin-2-yl)-1H-indole-3-carboxamide]
The IC50 of the first is higher: 0.5 to 2 µM for the first, under 0.5 µM for the second.
